Reference: US20240376089A1, “3-HYDROXY-5-(ISOXAZOL-5-YL) PYRIDINE FORMYLGLYCINE COMPOUNDS, PREPARATION METHOD, PHARMACEUTICAL COMPOSITION AND USE” (CHINA PHARMACEUTICAL UNIVERSITY, priority 2022, published 2024)
Like-named read-outs stand apart in the source and are kept apart here.

Tests used:
HepG2 cell = assay: Cellular lipid-lowering level detection (oleic acid-induced cellular hyperlipidemia model, triglyceride content); assay type: cell-based, human; conditions: HepG2 cells, drug treatment 24 h
Protocol: The lipid-lowering ability at the cellular level was confirmed by detecting triglyceride levels of hyperlipidemia cells to determine whether the compounds have the ability to improve hyperlipidemia at the cellular level (J. Med. Chem. 2021, 64(5), 2815-2828). This experiment adopted a human liver cancer cell, HepG2 cell. After a cellular hyperlipidemia model was induced by oleic acid, the cells were incubated and treated with a drug for 24 h. Then, the cells were lysed by ultrasonication, and the content of triglyceride was detected according to the instructions of a triglyceride kit.

FIH = FIH (Homo sapiens (Human), UniProt Q9NWT6); assay: Inhibitory activities of compounds on FIH, fluorescence polarization (FP assay); assay type: binding
Protocol: The compounds were serially diluted in an assay buffer to 12 concentration gradients, and then 20 μL of diluted 300 nM FIH protein was added to each well. […] The plate was incubated at room temperature for 1 h and scanned with a Synergy plate reader. The excitation wavelength was set to 485 nm, and the emission wavelength was set to 535 nm. […] The obtained data were imported into Graphpad prism 8.0 for analysis and fit to obtain IC50 values.

[1] = FP competition with FITC-HIF-1α 788-822, Table 1, read-out: FIH IC50
[2] = Table 2, comparison compounds, read-out: FIH (IC50 nM), compound where position 5 of pyridine is linked to other structures

Sequence of FIH (Q9NWT6 whole entry): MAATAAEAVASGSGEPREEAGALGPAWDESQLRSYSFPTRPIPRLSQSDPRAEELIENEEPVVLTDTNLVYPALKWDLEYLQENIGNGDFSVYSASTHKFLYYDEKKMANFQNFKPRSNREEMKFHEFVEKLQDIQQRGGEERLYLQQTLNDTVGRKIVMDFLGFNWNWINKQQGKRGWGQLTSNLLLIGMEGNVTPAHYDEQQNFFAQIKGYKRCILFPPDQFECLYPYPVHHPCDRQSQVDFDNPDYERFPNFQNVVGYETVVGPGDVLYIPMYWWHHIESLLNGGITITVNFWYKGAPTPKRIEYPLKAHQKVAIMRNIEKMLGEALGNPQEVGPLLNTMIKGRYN

| IC50 (FIH; [1]) | IC50 (FIH; [2]) | SMILES | Whether or not it can improve cellular hyperlipidemia (HepG2 cell) |
| --- | --- | --- | --- |
| – | – | O=C(O)CNC(=O)c1ncc(-c2cccc(Cl)c2)cc1O [AKB-6548, reference compound] | No |
| – | – | O=C(O)CNC(=O)c1ncc(-c2cc(-c3ccccc3)no2)cc1O [Compound I-1, 3-Hydroxy-5-(3-phenylisoxazol-5-yl)picolinoyl glycine] | Yes |
| – | – | Cc1cccc(-c2cc(-c3cnc(C(=O)NCC(=O)O)c(O)c3)on2)c1 [Compound I-2, 3-Hydroxy-5-(3-m-tolylisoxazol-5-yl)picolinoyl glycine] | Yes |
| – | – | O=C(O)CNC(=O)c1ncc(-c2cc(-c3ccc(-c4ccccc4)cc3)no2)cc1O [Compound I-3, 3-Hydroxy-5-(3-biphenylisoxazol-5-yl)picolinoyl glycine] | Yes |
| – | – | COc1cccc(-c2cc(-c3cnc(C(=O)NCC(=O)O)c(O)c3)on2)c1 [Compound I-4, 3-Hydroxy-5-(3-m-methoxyphenylisoxazol-5-yl)picolinoyl glycine] | Yes |
| – | – | O=C(O)CNC(=O)c1ncc(-c2cc(-c3cccc(Cl)c3)no2)cc1O [Compound I-5, 3-Hydroxy-5-(3-m-chlorophenylisoxazol-5-yl)picolinoyl glycine] | Yes |
| – | – | O=C(O)CNC(=O)c1ncc(-c2cc(-c3cccc(Br)c3)no2)cc1O [Compound I-6, 3-Hydroxy-5-(3-m-bromophenylisoxazol-5-yl)picolinoyl glycine] | Yes |
| – | – | O=C(O)CNC(=O)c1ncc(-c2cc(C3CCCCC3)no2)cc1O [Compound I-7, 3-Hydroxy-5-(3-cyclohexylisoxazol-5-yl)picolinoyl glycine] | Yes |
| – | – | O=C(O)CNC(=O)c1ncc(-c2cc(C3CC3)no2)cc1O [Compound I-8, 3-Hydroxy-5-(3-cyclopropylisoxazol-5-yl)picolinoyl glycine] | Yes |
| – | – | N#Cc1cccc(-c2cc(-c3cnc(C(=O)NCC(=O)O)c(O)c3)on2)c1 [Compound I-9, 3-Hydroxy-5-(3-m-cyanophenylisoxazol-5-yl)picolinoyl glycine] | Yes |
| – | – | O=C(O)CNC(=O)c1ncc(-c2cc(-c3cccc(C(F)(F)F)c3)no2)cc1O [Compound I-10, 3-Hydroxy-5-(3-m-trifluoromethylphenylisoxazol-5-yl)picolinoyl glycine] | Yes |
| – | – | O=C(O)CNC(=O)c1ncc(-c2cc(-c3cccc4ccccc34)no2)cc1O [Compound I-11, 3-Hydroxy-5-(3-(naphthyl-1-yl)isoxazol-5-yl)picolinoyl glycine] | Yes |
| – | – | O=C(O)CNC(=O)c1ncc(-c2cc(-c3ccc4ccccc4c3)no2)cc1O [Compound I-12, 3-Hydroxy-5-(3-(naphthyl-2-yl)isoxazol-5-yl)picolinoyl glycine] | Yes |
| – | – | Cc1ccccc1-c1cc(-c2cnc(C(=O)NCC(=O)O)c(O)c2)on1 [Compound I-13, 3-Hydroxy-5-(3-o-tolylisoxazol-5-yl)picolinoyl glycine] | Yes |
| – | – | Cc1ccc(-c2cc(-c3cnc(C(=O)NCC(=O)O)c(O)c3)on2)cc1 [Compound I-14, 3-Hydroxy-5-(3-p-tolylisoxazol-5-yl)picolinoyl glycine] | Yes |
| – | – | Cc1cc(C)cc(-c2cc(-c3cnc(C(=O)NCC(=O)O)c(O)c3)on2)c1 [Compound I-15, 3-Hydroxy-5-(3-m-dimethylphenylisoxazol-5-yl)picolinoyl glycine] | Yes |
| – | – | O=C(O)CNC(=O)c1ncc(-c2cc(-c3cccc(F)c3)no2)cc1O [Compound I-16, 3-Hydroxy-5-(3-m-fluorophenylisoxazol-5-yl)picolinoyl glycine] | Yes |
| – | – | O=C(O)CNC(=O)c1ncc(-c2cc(-c3ccccc3Cl)no2)cc1O [Compound I-17, 3-Hydroxy-5-(3-o-chlorophenylisoxazol-5-yl)picolinoyl glycine] | Yes |
| – | – | O=C(O)CNC(=O)c1ncc(-c2cc(-c3ccc(Cl)cc3)no2)cc1O [Compound I-18, 3-Hydroxy-5-(3-p-chlorophenylisoxazol-5-yl)picolinoyl glycine] | Yes |

| IC50 (FIH; [1]) | IC50 (FIH; [2]) | SMILES | Whether or not it can improve cellular hyperlipidemia (HepG2 cell) |
| --- | --- | --- | --- |
| – | – | O=C(O)CNC(=O)c1ncc(-c2cc(-c3cc(Cl)cc(Cl)c3)no2)cc1O [Compound I-19, 3-Hydroxy-5-(3-m-dichlorophenylisoxazol-5-yl)picolinoyl glycine] | Yes |
| – | – | O=C(O)CNC(=O)c1ncc(-c2cc(-c3ccccc3Br)no2)cc1O [Compound I-20, 3-Hydroxy-5-(3-o-bromophenylisoxazol-5-yl)picolinoyl glycine] | Yes |
| – | – | O=C(O)CNC(=O)c1ncc(-c2cc(-c3ccc(Br)cc3)no2)cc1O [Compound I-21, 3-Hydroxy-5-(3-p-bromophenylisoxazol-5-yl)picolinoyl glycine] | Yes |
| – | – | O=C(O)CNC(=O)c1ncc(-c2cc(-c3ccccc3C(F)(F)F)no2)cc1O [Compound I-22, 3-Hydroxy-5-(3-o-trifluoromethylphenylisoxazol-5-yl)picolinoyl glycine] | Yes |
| – | – | O=C(O)CNC(=O)c1ncc(-c2cc(-c3ccc(C(F)(F)F)cc3)no2)cc1O [Compound I-23, 3-Hydroxy-5-(3-p-trifluoromethylphenylisoxazol-5-yl)picolinoyl glycine] | Yes |
| 799 ± 8.6 nM | – | O=C(O)CNC(=O)c1ncc(-c2cc(-c3ccccc3F)no2)cc1O [Compound I-24, 3-Hydroxy-5-(3-o-fluorophenylisoxazol-5-yl)picolinoyl glycine] | Yes |
| 540 ± 1.8 nM | – | O=C(O)CNC(=O)c1ncc(-c2cc(-c3ccc(F)cc3)no2)cc1O [Compound I-25, 3-Hydroxy-5-(3-p-fluorophenylisoxazol-5-yl)picolinoyl glycine] | Yes |
| – | – | O=C(O)CNC(=O)c1ncc(-c2cc(-c3cc(F)cc(F)c3)no2)cc1O [Compound I-26, 3-Hydroxy-5-(3-m-difluorophenylisoxazol-5-yl)picolinoyl glycine] | Yes |
| 782 ± 9.6 nM | – | CC(C)(C)c1cccc(-c2cc(-c3cnc(C(=O)NCC(=O)O)c(O)c3)on2)c1 [Compound I-27, 3-Hydroxy-5-(3-m-tert-butylphenylisoxazol 5-yl)picolinoyl glycine] | Yes |
| 991 ± 12.3 nM | – | Cc1nc(C(=O)NCC(=O)O)c(O)cc1-c1cc(-c2ccccc2)no1 [Compound I-28, 3-Hydroxy-5-(3-phenylisoxazol-5-yl)-6-methylpicolinoyl glycine] | Yes |
| 1010 ± 25.1 nM | – | Cc1c(-c2ccccc2)noc1-c1cnc(C(=O)NCC(=O)O)c(O)c1 [Compound I-29, 3-Hydroxy-5-(4-methyl-3-phenylisoxazol-5-yl)picolinoyl glycine] | Yes |
| 1210 ± 22.9 nM | – | CC(C)(C)c1c(-c2ccccc2)noc1-c1cnc(C(=O)NCC(=O)O)c(O)c1 [Compound I-30, 3-Hydroxy-5-(4-tert-butyl-3-phenylisoxazol-5-yl)picolinoyl glycine] | Yes |
| 1920 ± 14.5 nM | – | O=C(O)CNC(=O)c1ncc(-c2onc(-c3ccccc3)c2C2CC2)cc1O [Compound I-31, 3-Hydroxy-5-(4-cyclopropyl-3-phenylisoxazol-5-yl)picolinoyl glycine] | Yes |
| 998 ± 10.9 nM | – | O=C(O)CNC(=O)c1ncc(-c2onc(-c3ccccc3)c2C2CCCCC2)cc1O [Compound I-32, 3-Hydroxy-5-(4-cyclohexyl-3-phenylisoxazol-5-yl) picolinoyl glycine] | Yes |
| 787 ± 9.5 nM | – | O=C(O)CNC(=O)c1ncc(-c2onc(-c3ccccc3)c2-c2ccccc2)cc1O [Compound I-33, 3-Hydroxy-5-(3,4-diphenylisoxazol-5-yl)picolinoyl glycine] | Yes |
| – | 19590 ± 43.8 nM | O=C(O)CNC(=O)c1ncc(-c2cn(-c3ccccc3)nn2)cc1O [reference compound] | – |
| – | 9024 ± 36.1 nM | O=C(O)CNC(=O)c1ncc(-c2cc(-c3ccccc3)co2)cc1O [reference compound] | – |
| – | 22250 ± 56.3 nM | O=C(O)CNC(=O)c1ncc(-c2cc(-c3ccccc3)n[nH]2)cc1O [reference compound] | – |
